# “Also recorded” adds a separate entry of the source. {5AmMC6} = amino-modifier C6 linker (IDT), here bearing the Gd-DOTA label; l = locked nucleic acid (LNA); d = 2'-deoxy (DNA)
# Experiments:
# [1] = at a neutral pH of 7; cited from earlier work
# [2] = Biodistribution of Gd-ASO after intratumoral injection, ICP-MS; format: in vivo, 4T1 tumor bearing Balb/CJRj mice
# Procedure: Methods: Gadolinium-labeled ASOs were synthesized as described in example 41. Spermine-Chol Gd-ASO complexes were prepared using the hydrophobic ionpairing method as described in example 43. The ASO complex was concentrated by freeze-drying, dissolved i in DMSO and embedded into NCCell (SuBen: GTH: EtOH: DMSO 55:20:2:15) according to example 45. The final Gd-ASO concentration in the NCCell was […]. Free Gd-ASO was prepared in PBS buffer at a concentration of 0.95 μg/μL.
# On Day 0, 4T1 tumor bearing Balb/CJRj mice were, under anesthesia (isoflurane), injected intratumorally with 50 μL of NCCell or 42 μL of free Gd-ASO in PBS, with a total concentration of 40 μg Gd-ASO per injection. […] Free ASO was injected using a 23G needle.
# Blood was collected from different groups 10 minutes, 1 hour, 4 hours, 24 hours, 72 hours and 5 days after treatment. Organs and other fluids (liver, spleen, lungs, kidneys) were harvested 24 hours and 5 days after treatment. For sample processing, full organ weight was recorded, as well as the weight of the tissue used, and was further processed for ICP-MS measurements. To prepare tissue for ICP-MS analysis, 50-100 mg of organs or NCCell were digested in 500 μL HNO3, (69%) 50 μL HCl (37%) and 300 μL H2O2 (35%) at 65° C. overnight followed by further dilutions in water and 2% HCl and subjected to ICP-MS analysis using Ir (0.5 ppb) as internal standard.
Compound,logP [1],"Gd-ASO concentration in liver, spleen, kidney and lung ([2]; 24 and 120 hours after intratumoral injection of 40 μg Gd-ASO)","Gd-ASO in blood ([2]; 10 minutes to 5 days after intratumoral injection, listed as free ASOs)"
CCN(CCO)CCCOc1ccc2c(Nc3cc(CC(=O)Nc4cccc(F)c4)[nH]n3)ncnc2c1 [AZD281],2,–,–
"free ASO: Gd-DOTA labelled ASO /5AmMC6/+G*+T*+C*A*C*A*A*T*G*C*A*T*T*+C*+T*+A in PBS (DNA GTCACAATGCATTCTA; sugars from the 5' end l3 d10 l3, all phosphorothioate, 5' {5AmMC6}, methylation of C not given here; Gd-DOTA attached via 5' amino linker)",–,"highest concentration of free ASO was observed in the lungs, followed by the liver and spleen",could be detected 10 minutes after injection; also recorded: no detectable Gd signal in the blood at later timepoints

# Source: patent US20250332283A1, “NUCLEOTIDE DELIVERY FROM INJECTABLE HYDROPHOBIC BIOMATERIAL” (DANMARKS TEKNISKE UNIVERSITET, priority 2022, published 2025)
